Paper PMC12501029, “Discovery of a CNS active GSK3 degrader using orthogonally reactive linker screening” (Nature Communications, 2025)
Entries after “also recorded” stand apart in the source; their conditions may differ.

How the values were obtained:
[1] = tested on: HEK293 cells phosphoproteome; assay: Phosphoproteomics in HEK293 cells; type: cell-based, human; parameters: scale not given here; details: vs DMSO; phosphosite abundance difference; MOESM9
Method: IMAC beads were prepared from Ni-NTA (nitrilotriacetic acid) superflow agarose beads. The nickel was stripped with 100 mM EDTA and incubated in an aqueous solution of 10 mM iron (III) chloride (FeCl3). Dried peptide fractions were reconstituted to a concentration of 0.5 μg/μL in 80% ACN/0.1% TFA. Peptide mixtures were enriched for phosphorylated peptides with 5 μL IMAC beads for 30 min with end-to-end rotation.
Enriched IMAC beads were loaded on Empore C18 silica-packed stage tips. Stage tips were equilibrated with acetonitrile followed by 50% ACN/0.1% FA then 1% FA. The beads with enriched peptides were loaded onto C18 stage tips and washed with 80% ACN/0.1% TFA. Phosphorylated peptides were eluted from IMAC beads with 500 mM dibasic sodium phosphate, pH 7.0. These peptides were washed with 1% FA before elution using 50% acetonitrile in 0.1% FA. The peptides were then dried by SpeedVac and stored at −20 °C until mass spectrometry analysis. The dried phosphopeptides were reconstituted in 0.1% formic acid and analyzed on an Orbitrap Ascend mass spectrometer coupled to a Thermo Fisher Scientific Vanquish Neo UHPLC. […] The total run time was set to 155 min. A survey full scan MS (from m/z 350–1500) was acquired in the Orbitrap at a resolution of 120,000 at 200 m/z. The most intense ions with charge state ≥2 were isolated and fragmented using higher collision dissociation (HCD) fragmentation, with 30% normalised collision energy, and detected at a mass resolution of 50,000 at 200 m/z. The isolation window was set at 1.6. The phosphoproteomics raw data were searched using SEQUEST HT search engines with Proteome Discoverer 3.0 (Thermo Fisher Scientific). The following parameters were used for searches: Precursor mass tolerance 10 ppm, fragment mass tolerance 0.02, enzyme: trypsin, […], fixed modification: carbamidomethylation of cysteine residues and TMT of lysine and N-terminal, dynamic modification: oxidation of methionine and phosphorylation of serine, threonine and tyrosine. The data were filtered for 1% PSM and peptide level. A two-tailed t-test with 250 randomisations was performed in Perseus software (v1.6.15.0) to assess statistical significance between groups. The resulting data were visualised as a volcano plot using GraphPad Prism (v10.1.2).

[2] = molecular target: T1, GSK3β-HiBiT (GSK3β-HiBiT KI HEK293 cells) (Homo sapiens, UniProt P49841); assay: Serum shift assay (10% FBS or 10% mouse serum); type: cell-based
T1 construct: we generated endogenously tagged GSK3β-HiBiT knock-in (KI) HEK293 cells; endogenous in cells; host or cells: GSK3β-HiBiT knock-in HEK293 cells (CRISPR/Cas9, single-cell clone)
T1 sequence (P49841 whole entry): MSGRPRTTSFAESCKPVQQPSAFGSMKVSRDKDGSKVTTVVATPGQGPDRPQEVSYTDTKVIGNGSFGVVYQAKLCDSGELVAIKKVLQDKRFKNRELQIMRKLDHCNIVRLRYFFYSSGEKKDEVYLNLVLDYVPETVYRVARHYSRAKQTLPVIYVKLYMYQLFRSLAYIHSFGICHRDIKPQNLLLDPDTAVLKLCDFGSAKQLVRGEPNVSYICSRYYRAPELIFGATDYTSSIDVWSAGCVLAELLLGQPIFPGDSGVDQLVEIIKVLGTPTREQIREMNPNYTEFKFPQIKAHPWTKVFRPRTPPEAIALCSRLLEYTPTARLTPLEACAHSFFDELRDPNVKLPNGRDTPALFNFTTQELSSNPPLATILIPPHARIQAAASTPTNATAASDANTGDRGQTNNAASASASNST
Method: Test compounds were serially diluted into white bottom opaque tissue culture grade 384-well assay plates (Perkin Elmer) using Echo500 (Labcyte) and GSK3β-HiBiT KI HEK293 cells were seeded at a density of 5 × 10^3 cells per well either in 50 µL of DMEM supplemented with regular 10% FBS (Gibco) or instead 10% mouse serum (Balb/C) and plates were incubated for compound treatment in incubators at 37 °C. After 24 h of compound treatment, HiBiT lytic reagents (Promega) prepared according to manufacturers’ instructions were added into plates and luminescence signal was measured on a PheraStar plate reader (BMG) and data analysed using GraphPad Prism (v10.1.2) as previously described above.

[3] = molecular target: T2, GSK3β (Mus musculus, UniProt Q9WV60); assay: KH1 (24) intravenous PK/PD study: GSK3β abundance in liver and brain (immunoblot); type: in vivo, female Balb/c mice; details: single 5 mg/kg i.v., 4 h, listed as KH1 (24)
T2 construct: measured KH1 (24) levels in plasma and brain at 4 h, as well as GSK3β abundance in liver and brain; tissue Charles River Laboratories, UK; host or cells: liver and brain of female Balb/c mice
T2 sequence (Q9WV60 whole entry): as the sequence (P49841 whole entry) above, with T390P, T392A, A400T, T402A counted along it
Method: A fraction of frozen brain and liver samples from control (CNT) and compound KH1 (24) treated animals were-transferred into Precellys 2 mL ceramic bead tubes containing 1 mL SDS lysis buffer (50 mM Tris-HCl pH 7.4, 150 mM NaCl, 1 mM EGTA, 270 mM sucrose, 1% (v/v) Triton-X100) supplemented with complete EDTA-free protease inhibitor cocktail (Roche) and PhosSTOP phosphatase inhibitor tablets (Roche) and placed immediately on ice. Then samples were placed in Precellys Evolution tissue homogeniser (Bertin Technologies) and tissues were lysed at 0 °C for 3 × 30 s of cycles at 6800 rpm, with 30 s pause in between cycles. Samples were centrifugated at 4 °C, 2000 × g for 60 s to get rid of bubbles and supernatant was transferred into new tubes. Lysates were cleared via centrifugation at 16,000 × g, 4 °C for 20 min. Protein concentration was determined by BCA assay (Thermo Scientific) and immunoblotting performed as previously described above. Immunoblots were quantified using ImageLab (Bio-Rad) and band intensities were normalised to loading controls; anti-GAPDH or Ponceau S staining and fold changes for protein of interest were plotted.
For the PK/PD study for KH1 (24), three female Balb/c mice were given a bolus intravenous injection at a dose level of 5 mg/kg (5 mL/kg). […] The concentration of KH1 (24) in whole blood and brain tissue was determined via UPLC-MS/MS.

SMILES: Cn1nc(N2CCC(=O)NC2=O)c2ccc(CN3CCN(Cc4ccc(-c5cn(-c6ccc(-c7cn8nccc(C(=O)Nc9cnccc9N9CCOCC9)c8n7)cc6)nn5)nc4)CC3)cc21 [compound 24]
- Difference, Q5PRF9 1xPhospho [S592(100)] SAMD4B [1]: 0.2452
- Difference, Q8NEM7 1xPhospho [S437(100)] SUPT20H [1]: 0.1561
- Difference, Q96KQ7 1xPhospho [S140(100)] EHMT2 [1]: 0.2159
- Difference, Q15398 1xPhospho [S725(100)] DLGAP5 [1]: -0.5208
- Difference, Q15911 1xPhospho [S426(100)] ZFHX3 [1]: -0.09567
- DC50 ([2]; 10% foetal bovine serum (FBS), 24 h): 1.3 nM
- DC50 ([2]; 10% mouse serum (MS), 24 h): 10.4 nM
- Dmax ([2]; HEK293, 10% foetal bovine serum (FBS), 24 h): 89%
- predicted shift in whole blood ([2]; extrapolated from 10% mouse serum shift): ~ 80 ×
- free fraction in mouse plasma from serum shift ([2]; extrapolated from serum shift assay): ~ 1.2%
- GSK3β abundance in liver ([3]; p < 0.0001 vs control): almost complete removal of GSK3β; also recorded: almost completely remove GSK3β
- GSK3β abundance in brain ([3]; p = 0.0159 vs control): significant degradation of GSK3β; also recorded: partial degradation
